The record followed here is ChEMBL document CHEMBL1201862, “PubChem BioAssay data set” (2004).

Activity calls are given as the source filed them.

A word on the EC50: it is the concentration needed to bring the measured effect to its halfway point. For orientation: IC50 means the concentration needed to halve the response being measured. The AC50 is the concentration at which the activity in the assay is half-maximal.

Assay [1] has as its system HEK293. Briefly: NOD1 signaling inhibitors, primary screen, cell-based, luminescence, uHTS (AID 1578). The assay is classed as functional. Particulars: Homo sapiens.
The test system of assay [2] is HEK293. Briefly: cells. The assay is classed as functional, cell-based. Particulars: Homo sapiens.
The subject of assay [3] is HEK293. Briefly: cells. The assay is classed as functional, cell-based. To be noted: Homo sapiens. The source holds these as a separate data set.
Assay [4] relates to HEK293. In words: NOD2 signaling inhibitors in MDP-stimulated cells, cell-based, uHTS, luminescence (AID 2001). The class given is functional. Particulars: Homo sapiens.
The target in the next assay is Tumor necrosis factor (Homo sapiens, UniProt P01375). Briefly: TNFa-triggered NF-kB activation inhibitors, SAR follow-up, cell-based, revised (AID 2337). The assay is classed as functional.
The target in assay [5] is Nucleotide-binding oligomerization domain-containing protein 1 (Homo sapiens, UniProt Q9Y239). Briefly: NOD1 signaling inhibitors, SAR follow-up, revised (AID 2333). The assay is classed as functional.
In assay [6] the target is Nucleotide-binding oligomerization domain-containing protein 2 (Homo sapiens, UniProt Q9HC29). In words: PubChem AID 2334. The assay is classed as functional.
Assay [7] has as its system HEK293. Briefly: cells. To be noted: Homo sapiens.
The test system of assay [8] is HEK293. Briefly: Fluorescence-based counterscreen for potentiators or agonists of NPY-Y2: cell-based high-throughput dose response assay to identify inhibitors of cyclic nucleotide gated ion channel (CNGC) activity. In this assay, the parental HEK293 cell line transfected with a cyclic-nucleotide gated ion channel (CNGC)-based cAMP sensor is used to measure inhibition of isoproterenol-induced CNGC activity by test compound. The assay is classed as functional. To be noted: Homo sapiens.

Assay [9] deals with Neuropeptide Y receptor type 2 (Homo sapiens, UniProt P49146). In words: Fluorescence-based cell-based high-throughput dose response assay for agonists of NPY-Y2. [Related pubchem assays: 1703 (Screening assay (CNGC inhibitors).), 1359 (Screening assay (NPY-Y2 potentiators or agonists).), 1304 (Screening assay (NPY-Y1 potentiators or agonists).), 1710 (Screening assay (NPY-Y2 agonists).), 1791 (Summary AID.)]. The assay is classed as functional.

Assay [10] has as its target Neuropeptide Y receptor type 1 (Homo sapiens, UniProt P25929). In words: Fluorescence-based counterscreen for agonists of NPY-Y2: cell-based high-throughput dose response assay for agonists of NPY-Y1. The class given is functional.
The subject of assay [11] is Streptococcus sp. 'group A'. Briefly: growth inhibition of control SK(-) GAS strain, dose response, counter-screen for streptokinase expression inhibitor project, luminescence, kanamycin, BacTiterGlo, confirmation (AID 1900). The class given is functional, organism-based. For orientation: A counterscreen serves to expose hits that act by an unwanted route or on another target.

Assay [12] has as its system Streptococcus. In words: Luminescence Microorganism-Based Dose Response Follow up to Identify Compounds Cytotoxic to Streptococcus. [Related pubchem assays: 1677 (Project Summary), 1915, 1914, 1902 (Retest at Dose), 1900 (Counter Screen), 1662 (Primary HTS)]. The class given is functional, organism-based.
A further assay deals with T1, Streptokinase A (Streptococcus pyogenes serotype M1, UniProt P10520).
T1 sequence (P10520 whole entry): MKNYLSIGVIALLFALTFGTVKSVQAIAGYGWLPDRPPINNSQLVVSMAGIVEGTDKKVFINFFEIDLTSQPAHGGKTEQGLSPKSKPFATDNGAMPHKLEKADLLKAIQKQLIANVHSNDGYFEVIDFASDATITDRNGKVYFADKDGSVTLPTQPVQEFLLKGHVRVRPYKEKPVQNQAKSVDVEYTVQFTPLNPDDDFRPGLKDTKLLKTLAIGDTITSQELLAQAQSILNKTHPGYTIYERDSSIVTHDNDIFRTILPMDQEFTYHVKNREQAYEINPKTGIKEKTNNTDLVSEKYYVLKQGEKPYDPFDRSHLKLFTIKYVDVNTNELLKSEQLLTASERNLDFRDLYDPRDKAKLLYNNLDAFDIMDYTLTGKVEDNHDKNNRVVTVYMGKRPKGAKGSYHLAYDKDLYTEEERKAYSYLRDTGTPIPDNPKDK
Briefly: S. pyogenes streptokinase expression inhibitors, potency, dose response, plasminogen activation absorbance, OD405 (AID 1914).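 Note: secreted streptokinase activity via plasminogen activation per viability signal from cell pellet.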 The class given is functional, Streptococcus pyogenes M1 GAS.

Assay [13] concerns Streptococcus. Briefly: Group A Streptococcus viability loss, dose response, counter-screen for streptokinase expression inhibitor project, luminescence, BacTiterGlo (AID 1915).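 Note: potency for reduction of bacterial viability or growth.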 The assay is classed as functional, organism-based.
A further assay has as its target T2, Aspartyl aminopeptidase (Plasmodium falciparum 3D7, UniProt Q8I2J3).
T2 sequence (Q8I2J3 whole entry): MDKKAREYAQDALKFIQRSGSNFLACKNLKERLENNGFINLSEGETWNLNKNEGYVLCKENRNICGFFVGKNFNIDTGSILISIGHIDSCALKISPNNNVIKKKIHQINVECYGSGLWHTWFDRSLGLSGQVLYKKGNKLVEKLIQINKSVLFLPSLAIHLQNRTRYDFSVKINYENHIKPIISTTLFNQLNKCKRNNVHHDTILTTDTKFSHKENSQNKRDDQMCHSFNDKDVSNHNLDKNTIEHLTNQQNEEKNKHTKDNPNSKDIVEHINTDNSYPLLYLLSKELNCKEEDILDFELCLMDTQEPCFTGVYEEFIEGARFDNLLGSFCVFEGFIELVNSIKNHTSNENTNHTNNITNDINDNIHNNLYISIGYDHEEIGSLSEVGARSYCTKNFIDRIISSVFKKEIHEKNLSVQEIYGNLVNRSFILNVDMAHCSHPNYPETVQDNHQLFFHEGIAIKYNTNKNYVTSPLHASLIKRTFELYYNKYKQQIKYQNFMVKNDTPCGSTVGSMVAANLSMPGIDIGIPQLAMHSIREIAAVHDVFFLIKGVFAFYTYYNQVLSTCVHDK

For a further assay, the target named is Procathepsin L (Homo sapiens, UniProt P07711).
For assay [14], the system named is BJ. In words: cytotoxicity toward BJ-TERT fibroblasts, dose response, cell-based, RAS-independent, luminescence (AID 1933). The class given is functional. Particulars: Homo sapiens.
Assay [15] concerns BJ. Briefly: cells. The class given is functional, cell-based. To be noted: Homo sapiens.
Assay [16] deals with Luciferin 4-monooxygenase (Photinus pyralis, UniProt P08659). Briefly: firefly luciferase enzyme inhibitors, dose response, biochemical, luminescence (AID 1891).
Assay [17] in a line: Luminescence Cell-Based Dose Confirmation HTS to Identify Inhibitors of Platelet Dense Granule Release. [Related pubchem assays: 1663 (Primary HTS), 1678 (Summary of Project)]. The assay is classed as functional.
The test system of assay [18] is BJ. Briefly: cytotoxicity toward BJ-TERT-LT-ST fibroblasts, dose response, cell-based, RAS-independent, luminescence (AID 1935).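 Note: BJ fibroblasts immortalized with TERT plus LT and ST oncogenes.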 The assay is classed as functional. Particulars: Homo sapiens.
Assay [19] is described as follows: cytotoxicity toward DRD oncogenic fibroblasts, dose response, cell-based, non-viral oncogenic, luminescence (AID 1934). To be noted: Homo sapiens. The class given is functional.
Assay [20] concerns the target Glucose-6-phosphate 1-dehydrogenase (Homo sapiens, UniProt P11413). Briefly: human G6PD enzyme inhibitors, dose response, selectivity assay for P. falciparum G6PD inhibitor project, biochemical, fluorescence (AID 504792). The assay is classed as functional.
Assay [21] is described as follows: inhibition of ADP-Glo detection reagents, dose response, artefact control for CDK5 inhibitor project, biochemical, luminescence, cherry-picked samples, set 2 (AID 504546). The assay is classed as functional.
Assay [22] has as its target Cyclin-dependent kinase 5/CDK5 activator 1 (Homo sapiens, UniProt Q00535). Briefly: CDK5/p35 kinase inhibitors, dose response, biochemical, cherry-picked samples, set 2 (AID 504545).
In assay [23] the test system is HEK293. Briefly: inhibitors of LMP1-driven NF-kB reporter, dose response, cell-based, HEK293, luciferase, cherry-pick (AID 588343). Particulars: Homo sapiens. The assay is classed as functional.
The subject of a further assay is INS1. Briefly: beta cell apoptosis inhibitors, cytokine rescue, dose response, luminescence, retest (AID 449756).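 Note: cell death triggered by IL-1 beta plus TNF-alpha plus IFN-gamma mixture; protective hits raise ATP signal compared with cytokine alone wells.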 The class given is functional, cell-based. To be noted: Rattus norvegicus.
A further assay has as its target CAAX prenyl protease 2 (Homo sapiens, UniProt Q9Y256). In words: human Rce1 protease inhibitors, dose response, biochemical, yeast membranes, quenched-peptide fluorescence, cherry-pick (AID 588849).
For a further assay, the target named is Paired box protein Pax-8 (Homo sapiens, UniProt Q06710). Briefly: inhibitors of PAX8-driven TPO luciferase reporter, dose response, RMG-I cells, cherry-pick (AID 687027).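 Note: luciferase reporter driven by Pax8 target thyroperoxidase promoter measured by SteadyGlo luminescence.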 The assay is classed as functional, cell-based.
Assay [24] in a line: non-specific cell cytotoxicity, dose response, cytotoxicity control for PAX8 inhibitor project, plate reader, dry powder samples (AID 743021). The class given is functional, cell-based.

Sequence of Paired box protein Pax-8 (Q06710 whole entry): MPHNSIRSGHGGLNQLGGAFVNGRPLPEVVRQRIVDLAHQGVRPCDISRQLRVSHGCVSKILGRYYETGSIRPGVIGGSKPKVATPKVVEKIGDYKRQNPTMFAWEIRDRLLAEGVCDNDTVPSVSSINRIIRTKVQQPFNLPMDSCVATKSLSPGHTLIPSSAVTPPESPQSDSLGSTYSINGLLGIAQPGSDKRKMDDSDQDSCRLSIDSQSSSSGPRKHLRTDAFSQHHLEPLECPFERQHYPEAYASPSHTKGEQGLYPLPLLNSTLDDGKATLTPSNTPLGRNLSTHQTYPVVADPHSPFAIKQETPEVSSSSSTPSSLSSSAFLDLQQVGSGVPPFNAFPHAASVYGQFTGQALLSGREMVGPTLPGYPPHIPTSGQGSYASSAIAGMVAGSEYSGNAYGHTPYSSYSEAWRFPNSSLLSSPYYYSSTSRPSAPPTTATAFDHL
Sequence of Cyclin-dependent kinase 5/CDK5 activator 1 (Q00535 whole entry): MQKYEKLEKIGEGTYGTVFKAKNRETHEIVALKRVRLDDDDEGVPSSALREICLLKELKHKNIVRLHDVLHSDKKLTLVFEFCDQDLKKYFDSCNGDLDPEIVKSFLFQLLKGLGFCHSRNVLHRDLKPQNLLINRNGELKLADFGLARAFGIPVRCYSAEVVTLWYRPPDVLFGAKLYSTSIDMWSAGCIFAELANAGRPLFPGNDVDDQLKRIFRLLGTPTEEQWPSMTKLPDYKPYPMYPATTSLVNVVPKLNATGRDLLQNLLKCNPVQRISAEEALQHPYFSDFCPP
Sequence of Cyclin-dependent kinase 5/CDK5 activator 1 (Q15078 whole entry, further chain): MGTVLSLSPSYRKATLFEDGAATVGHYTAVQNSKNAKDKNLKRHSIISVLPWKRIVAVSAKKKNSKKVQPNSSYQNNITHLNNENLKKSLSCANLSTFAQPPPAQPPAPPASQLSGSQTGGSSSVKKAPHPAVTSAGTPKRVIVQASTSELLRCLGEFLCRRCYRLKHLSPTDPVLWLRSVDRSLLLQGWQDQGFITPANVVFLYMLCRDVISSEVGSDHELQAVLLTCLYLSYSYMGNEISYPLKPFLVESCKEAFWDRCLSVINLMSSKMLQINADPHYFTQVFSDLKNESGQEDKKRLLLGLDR
Sequence of Tumor necrosis factor (P01375 whole entry, the tested form may be a part): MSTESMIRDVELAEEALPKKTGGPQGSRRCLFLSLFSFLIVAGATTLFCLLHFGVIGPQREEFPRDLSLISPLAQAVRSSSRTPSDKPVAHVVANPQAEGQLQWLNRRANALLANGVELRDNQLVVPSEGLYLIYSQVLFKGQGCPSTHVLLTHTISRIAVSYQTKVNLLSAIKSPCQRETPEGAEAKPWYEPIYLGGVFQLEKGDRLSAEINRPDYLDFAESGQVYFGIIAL
Sequence of Procathepsin L (P07711 whole entry): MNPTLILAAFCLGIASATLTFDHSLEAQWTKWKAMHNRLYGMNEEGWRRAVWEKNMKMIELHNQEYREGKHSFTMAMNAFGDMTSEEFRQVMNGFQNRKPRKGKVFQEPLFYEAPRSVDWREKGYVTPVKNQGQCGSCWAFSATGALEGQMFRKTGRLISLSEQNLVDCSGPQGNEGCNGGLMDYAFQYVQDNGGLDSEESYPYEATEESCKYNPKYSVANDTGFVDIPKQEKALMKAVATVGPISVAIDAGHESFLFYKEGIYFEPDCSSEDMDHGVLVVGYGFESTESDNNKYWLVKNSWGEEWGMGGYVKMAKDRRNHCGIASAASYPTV
Sequence of Nucleotide-binding oligomerization domain-containing protein 2 (Q9HC29 whole entry, the tested form may be a part): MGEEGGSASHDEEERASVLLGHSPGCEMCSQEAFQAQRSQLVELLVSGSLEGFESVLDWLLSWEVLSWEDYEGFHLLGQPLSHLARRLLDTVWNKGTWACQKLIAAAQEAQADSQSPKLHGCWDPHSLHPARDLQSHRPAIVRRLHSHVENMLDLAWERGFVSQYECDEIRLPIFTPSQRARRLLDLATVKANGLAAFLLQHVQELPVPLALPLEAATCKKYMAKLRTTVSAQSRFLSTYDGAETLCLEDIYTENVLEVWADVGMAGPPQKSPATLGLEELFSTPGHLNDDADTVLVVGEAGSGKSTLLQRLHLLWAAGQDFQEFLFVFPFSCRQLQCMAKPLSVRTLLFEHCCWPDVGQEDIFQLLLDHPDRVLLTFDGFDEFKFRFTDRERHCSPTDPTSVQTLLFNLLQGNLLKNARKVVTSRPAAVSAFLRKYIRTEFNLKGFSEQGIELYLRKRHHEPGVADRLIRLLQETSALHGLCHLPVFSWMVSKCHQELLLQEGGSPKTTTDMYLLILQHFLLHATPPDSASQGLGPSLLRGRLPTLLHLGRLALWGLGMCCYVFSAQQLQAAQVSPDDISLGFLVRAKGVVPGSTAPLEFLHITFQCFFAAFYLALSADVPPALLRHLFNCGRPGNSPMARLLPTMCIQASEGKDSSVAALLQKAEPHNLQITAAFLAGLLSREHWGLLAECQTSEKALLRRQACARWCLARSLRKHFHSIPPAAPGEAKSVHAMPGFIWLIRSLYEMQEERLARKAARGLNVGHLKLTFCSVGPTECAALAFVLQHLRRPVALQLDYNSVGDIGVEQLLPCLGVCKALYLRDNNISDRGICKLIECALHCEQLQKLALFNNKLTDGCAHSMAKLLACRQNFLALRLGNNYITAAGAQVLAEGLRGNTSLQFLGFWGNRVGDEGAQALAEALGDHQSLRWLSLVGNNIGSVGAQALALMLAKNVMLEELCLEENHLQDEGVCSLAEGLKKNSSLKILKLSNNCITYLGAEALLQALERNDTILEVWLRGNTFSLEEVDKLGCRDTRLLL
Sequence of Neuropeptide Y receptor type 1 (P25929 whole entry): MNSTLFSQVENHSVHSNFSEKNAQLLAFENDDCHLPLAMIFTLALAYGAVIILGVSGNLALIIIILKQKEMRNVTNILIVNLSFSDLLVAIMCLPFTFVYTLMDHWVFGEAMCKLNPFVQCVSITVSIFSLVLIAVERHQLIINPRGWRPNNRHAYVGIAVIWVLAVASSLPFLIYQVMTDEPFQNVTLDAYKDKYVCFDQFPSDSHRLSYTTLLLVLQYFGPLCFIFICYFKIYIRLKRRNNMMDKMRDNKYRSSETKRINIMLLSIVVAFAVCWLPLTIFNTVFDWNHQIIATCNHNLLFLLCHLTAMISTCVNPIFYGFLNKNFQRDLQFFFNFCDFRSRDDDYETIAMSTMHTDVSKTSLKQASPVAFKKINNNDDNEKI
Sequence of CAAX prenyl protease 2 (Q9Y256 whole entry): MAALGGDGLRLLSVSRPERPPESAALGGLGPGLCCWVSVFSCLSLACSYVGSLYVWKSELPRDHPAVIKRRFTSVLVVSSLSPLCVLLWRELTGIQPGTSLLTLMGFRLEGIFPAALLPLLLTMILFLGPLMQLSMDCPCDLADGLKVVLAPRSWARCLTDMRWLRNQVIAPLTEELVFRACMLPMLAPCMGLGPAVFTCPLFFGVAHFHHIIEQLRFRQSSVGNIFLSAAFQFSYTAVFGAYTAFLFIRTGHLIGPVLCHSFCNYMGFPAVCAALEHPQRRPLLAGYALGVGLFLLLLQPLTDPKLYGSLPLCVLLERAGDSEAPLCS
Sequence of Nucleotide-binding oligomerization domain-containing protein 1 (Q9Y239 whole entry, the tested form may be a part): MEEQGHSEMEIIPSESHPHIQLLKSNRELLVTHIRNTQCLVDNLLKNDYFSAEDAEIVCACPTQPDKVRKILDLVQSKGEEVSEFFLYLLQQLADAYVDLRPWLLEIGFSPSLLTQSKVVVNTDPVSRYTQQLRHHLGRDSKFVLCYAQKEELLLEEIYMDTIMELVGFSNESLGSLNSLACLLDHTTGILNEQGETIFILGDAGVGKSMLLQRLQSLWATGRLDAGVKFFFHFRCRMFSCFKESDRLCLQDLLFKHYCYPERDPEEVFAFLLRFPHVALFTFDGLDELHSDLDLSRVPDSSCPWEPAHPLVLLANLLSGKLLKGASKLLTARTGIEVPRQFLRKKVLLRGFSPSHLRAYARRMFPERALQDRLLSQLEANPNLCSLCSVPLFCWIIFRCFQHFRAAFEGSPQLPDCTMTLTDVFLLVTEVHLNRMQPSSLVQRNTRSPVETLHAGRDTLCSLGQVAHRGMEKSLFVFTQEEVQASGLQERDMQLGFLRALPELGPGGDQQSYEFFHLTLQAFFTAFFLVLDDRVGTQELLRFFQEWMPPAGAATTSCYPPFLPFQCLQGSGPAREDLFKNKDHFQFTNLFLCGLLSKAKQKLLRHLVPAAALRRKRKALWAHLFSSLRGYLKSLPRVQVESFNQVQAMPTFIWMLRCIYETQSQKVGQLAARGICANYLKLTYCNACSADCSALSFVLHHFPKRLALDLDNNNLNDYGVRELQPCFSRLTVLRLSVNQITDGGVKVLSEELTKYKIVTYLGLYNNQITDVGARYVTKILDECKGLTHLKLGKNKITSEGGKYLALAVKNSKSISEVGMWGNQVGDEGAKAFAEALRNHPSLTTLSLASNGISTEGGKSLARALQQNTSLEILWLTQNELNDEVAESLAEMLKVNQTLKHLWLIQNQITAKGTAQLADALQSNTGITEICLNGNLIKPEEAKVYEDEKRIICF
Sequence of Glucose-6-phosphate 1-dehydrogenase (P11413 whole entry): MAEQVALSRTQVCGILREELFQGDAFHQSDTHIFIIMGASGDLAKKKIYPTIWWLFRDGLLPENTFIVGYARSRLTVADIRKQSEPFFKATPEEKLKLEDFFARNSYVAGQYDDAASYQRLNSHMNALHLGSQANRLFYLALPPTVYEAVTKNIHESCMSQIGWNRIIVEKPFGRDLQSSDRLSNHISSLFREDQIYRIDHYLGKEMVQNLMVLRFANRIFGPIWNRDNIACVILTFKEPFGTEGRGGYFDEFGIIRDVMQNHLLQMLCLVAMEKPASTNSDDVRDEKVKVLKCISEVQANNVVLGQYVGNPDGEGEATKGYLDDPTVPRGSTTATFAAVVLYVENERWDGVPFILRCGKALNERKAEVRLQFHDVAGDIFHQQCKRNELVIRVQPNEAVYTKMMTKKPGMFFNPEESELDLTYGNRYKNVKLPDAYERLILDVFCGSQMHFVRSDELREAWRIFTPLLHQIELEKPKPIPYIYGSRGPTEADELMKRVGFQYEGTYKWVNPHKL

Regarding `COc1cccc(Nc2nc3ccccc3nc2NS(=O)(=O)c2cccs2)c1`, the EC50 in the assay with HEK293 [1] is 3.67 µM (active). Besides, the IC50 in the assay with HEK293 [2] is > 20 µM (inactive); in the assay on HEK293 [3] it was > 20 µM (inactive); in the assay on HEK293 [4], 11.5 µM (inactive); at Tumor necrosis factor it was 12.3 µM (active); in assay [5] it was 4.68 µM (active); in assay [6] it was 6.08 µM (active). In addition, the IC50 with HEK293 [7] was > 20 µM (inactive).
For `COc1ccc(Cn2cnc3c(NS(C)(=O)=O)c(C)c(C)cc32)cc1`, the EC50 is reported as > 35.4 µM (not active) in the assay with HEK293 [8], > 35.4 µM (not active) in assay [9] and 19.3 µM (not active) in [10].
Regarding `Clc1cccc(Cl)c1CSc1nnc(/C=C/c2ccccc2)o1`, the EC50 in assay [11] is 28.8 µM (active); with Streptococcus [12] it was > 500 µM (not active); on Streptokinase A, 4.01 µM (active); in the assay with Streptococcus [13], > 150 µM (not active).
In the case of `Cc1ccc(N2C(=O)/C(=C\Nn3cnnc3)c3ccccc3C2=O)cc1`, the IC50 on Aspartyl aminopeptidase is 1.95 µM (active); on Procathepsin L it was > 59.6 µM (not active).
Take `COc1ccc(/C=C/c2nc3ccccc3n2C)cc1`: the EC50 was 9.33 µM (active) in the assay with BJ [14]; 7.64 µM (active) in the assay with BJ [15]; 0.747 µM (active) in assay [16]; 1.01 µM (active) in [17]; > 150 µM (inconclusive) in the assay with BJ [18]; 7.64 µM (active) in assay [19]. Moreover, the IC50 in assay [20] was > 80 µM (inactive). The AC50 in [21] is 27 µM (active); in assay [22], 16.4 µM (active); in the assay on HEK293 [23] it was 0.997 µM (active); in the assay with INS1, 4.95 µM (active); on CAAX prenyl protease 2 it was 7.09 µM (active); on Paired box protein Pax-8, 6.69 µM (active). In [24], the AC50 was 5.95 µM (active).
